According to US5401736A, “4,5,6,7-tetrahydro-1H-imidazo[4,5-c]pyridine-6-carboxylic acid amide” (Kureha Kagaku Kogyo Kabushiki Kaisha, priority 1992, dated 1995):
Like-named read-outs stand apart in the source and are kept apart here.

Tests used:
[1] = target: T1, angiotensin II receptor type 1 (AT1), suprarenal gland of rabbit (Oryctolagus cuniculus, UniProt P34976); experiment: Receptor binding test, AT1 (tracer 3H-angiotensin II, displacer DuP753); settings: room temperature, read-out: Binding inhibition ratio (%) of the test compounds at 1 μM, AT1
T1 construct: Receptor: suprarenal gland of rabbit; from tissue; host or cells: suprarenal gland (adrenal) of rabbit
T1 sequence (P34976 1-359): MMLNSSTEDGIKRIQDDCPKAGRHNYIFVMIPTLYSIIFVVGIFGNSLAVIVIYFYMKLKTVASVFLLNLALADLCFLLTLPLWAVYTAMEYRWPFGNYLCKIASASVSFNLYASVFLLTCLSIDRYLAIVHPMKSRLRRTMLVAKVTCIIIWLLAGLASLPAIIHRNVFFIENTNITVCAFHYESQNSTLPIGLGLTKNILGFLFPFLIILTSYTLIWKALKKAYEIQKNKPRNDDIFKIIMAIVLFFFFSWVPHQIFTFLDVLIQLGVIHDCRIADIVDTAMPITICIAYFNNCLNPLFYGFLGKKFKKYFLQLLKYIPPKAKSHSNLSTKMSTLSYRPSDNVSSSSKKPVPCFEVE
Method: Determination of total binding in the presence of each drug to be tested was made in the following way. A test drug of a predetermined concentration (0.025 ml; dissolved in dimethyl sulfoxide, then diluted two-fold with a buffer attached to the Drug Discovery System and used for assay), a tracer (0.025 ml), and a receptor (0.2 ml) were added to make a total volume of 0.25 ml. After incubation (at room temperature for 3 hours for the angiotensin II receptor type 1 (AT1) and at 37° C. for one hour for the type 2 (AT2)), the reaction mixture was subjected to suction filtration (using GF/C filter paper for AT1 and GF/B filter paper for AT2). The filter paper (tracer-receptor complex) after suction filtration was measured by a y-well counter (ARC-500, Aloka). The non-specific binding was determined by the similar operation by using a large excess of displacer. The specific binding at the predetermined concentration of the test drug was calculated by deducting the non-specific binding from the total binding. The ratio (%) at which the test drugs inhibit binding between radioactive ligand and receptor was determined for both AT1 and AT2 by using the test drugs of the predetermined concentration and a control drug. | *Receptor: suprarenal gland of rabbit Tracer: ^3 Hangiotensin II | (displacer: […])

[2] = target: T2, angiotensin II receptor type 2 (AT2), bovine cerebellar cortex (Bos taurus, UniProt G5E6F7); experiment: Receptor binding test, AT2 (tracer 125I-Tyr4-angiotensin II, displacer angiotensin II (human)); settings: 1 h, read-out: Binding inhibition ratio (%) of the test compounds at 1 μM, AT2
T2 construct: Receptor: bovine cerebellar cortex; from tissue; host or cells: bovine cerebellar cortex
T2 sequence (G5E6F7 1-362): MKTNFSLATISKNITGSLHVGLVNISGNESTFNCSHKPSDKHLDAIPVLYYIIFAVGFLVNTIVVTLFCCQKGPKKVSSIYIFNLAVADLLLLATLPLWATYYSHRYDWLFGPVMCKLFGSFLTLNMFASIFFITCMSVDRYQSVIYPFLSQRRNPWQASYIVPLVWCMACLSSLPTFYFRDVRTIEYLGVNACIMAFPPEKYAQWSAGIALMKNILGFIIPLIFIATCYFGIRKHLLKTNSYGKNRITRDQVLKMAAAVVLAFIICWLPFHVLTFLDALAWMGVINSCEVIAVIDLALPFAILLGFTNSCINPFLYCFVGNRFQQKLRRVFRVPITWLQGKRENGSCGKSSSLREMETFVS
Method: Determination of total binding in the presence of each drug to be tested was made in the following way. A test drug of a predetermined concentration (0.025 ml; dissolved in dimethyl sulfoxide, then diluted two-fold with a buffer attached to the Drug Discovery System and used for assay), a tracer (0.025 ml), and a receptor (0.2 ml) were added to make a total volume of 0.25 ml. After incubation (at room temperature for 3 hours for the angiotensin II receptor type 1 (AT1) and at 37° C. for one hour for the type 2 (AT2)), the reaction mixture was subjected to suction filtration (using GF/C filter paper for AT1 and GF/B filter paper for AT2). The filter paper (tracer-receptor complex) after suction filtration was measured by a y-well counter (ARC-500, Aloka). The non-specific binding was determined by the similar operation by using a large excess of displacer. The specific binding at the predetermined concentration of the test drug was calculated by deducting the non-specific binding from the total binding.

[3] = 1 μM, receptor: bovine cerebellar cortex, 37° C., one hour

inhibition at 1 µM [1] [%]	inhibition at 1 µM [2, 3] [%]	SMILES	inhibition at 1 µM [2] [%]
0	100	Cc1cc(Cn2cnc3c2C[C@@H](C(=O)N(C)C)N(C(=O)C(c2ccccc2)c2ccccc2)C3)ccc1NC(=O)c1ccccc1C(=O)O [Compound I-2, (S)-1-(4-(2-carboxybenzoylamino)-3-methylphenyl)methyl-N,N-dimethyl-5-diphenylacetyl-4,5,6,7-tetrahydro-1H-imidazo[4,5-c]pyridine-6-carboxamide]	
100	0	CCCCc1nc2c(n1Cc1ccc(-c3ccccc3-c3nn[nH]n3)c(C)c1)C[C@@H](C(=O)N(C)C)N(C(=O)C(c1ccccc1)c1ccccc1)C2 [Compound I-19]	
0	100	O=C([C@@H]1Cc2c(ncn2Cc2ccc(-c3ccccc3-c3nnn[nH]3)cc2)CN1C(=O)C(c1ccccc1)c1ccccc1)N1CCOCC1 [Compound I-24, 4-[[(S)-5-diphenylacetyl-1-[(2'-(1H-tetrazol-5-yl)biphenyl-4-yl)methyl]-4,5,6,7-tetrahydro-1H-imidazo[4,5-c]pyridin-6-yl]carbonyl]morpholine]	
100	0	CCCCc1nc2c(n1Cc1ccc(-c3ccccc3-c3nn[nH]n3)cc1)C[C@@H](C(=O)N1CCOCC1)N(C(=O)C(c1ccccc1)c1ccccc1)C2 [Compound I-31]	
0	65	Cc1cc(Cn2cnc3c2CC(C(=O)O)N(C(=O)C(c2ccccc2)c2ccccc2)C3)ccc1N (centres unmarked) [PD123177, reference compound]	
0	71	Cc1cc(Cn2cnc3c2CC(C(=O)O)N(C(=O)C(c2ccccc2)c2ccccc2)C3)ccc1NC(=O)c1ccccc1C(=O)O (centres unmarked) [Reference compound 1, reference compound]	
0	72	COC(=O)C1Cc2c(ncn2Cc2ccc(NC(=O)c3ccccc3C(=O)O)c(C)c2)CN1C(=O)C(c1ccccc1)c1ccccc1 (centres unmarked) [Reference compound 2, reference compound]	
0	76	O=C(O)C1Cc2c(ncn2Cc2ccc(-c3ccccc3-c3nn[nH]n3)cc2)CN1C(=O)C(c1ccccc1)c1ccccc1 (centres unmarked) [Reference compound 27, reference compound]	
75	0	CCCc1nc2c(n1Cc1ccc(-c3ccccc3-c3nn[nH]n3)cc1)CC(C(=O)O)N(C(=O)C(c1ccccc1)c1ccccc1)C2 (centres unmarked) [Reference compound 50, reference compound]	

Continued, molecule first:

SMILES	inhibition at 1 µM [1] [%]	inhibition at 1 µM [2, 3] [%]	inhibition at 1 µM [2] [%]
CN(C)C(=O)[C@@H]1Cc2c(ncn2Cc2ccc(NC(=O)c3ccccc3C(=O)O)cc2)CN1C(=O)C(c1ccccc1)c1ccccc1 [Compound I-1]	0	100	
Cc1cc(Cn2cnc3c2C[C@@H](C(=O)N2CCOCC2)N(C(=O)C(c2ccccc2)c2ccccc2)C3)ccc1NC(=O)c1ccccc1C(=O)O [Compound I-7]	0	100	
CCCCc1nc2c(n1Cc1ccc(NC(=O)c3ccccc3C(=O)O)c(C)c1)C[C@@H](C(=O)N(C)C)N(C(=O)C(c1ccccc1)c1ccccc1)C2 [Compound I-12]	100	0	
CCCCc1nc2c(n1Cc1ccc(-c3ccccc3C(=O)O)cc1)C[C@@H](C(=O)N(C)C)N(C(=O)C(c1ccccc1)c1ccccc1)C2 [Compound I-17]	100	0	
O=C(O)c1ccc(Cn2cnc3c2C[C@@H](C(=O)N2CCOCC2)N(C(=O)C(c2ccccc2)c2ccccc2)C3)cc1 [Compound I-21]	0	100	
CCCCc1nc2c(n1Cc1ccc(NC(=O)c3ccccc3C(=O)O)c(C)c1)C[C@@H](C(=O)N1CCOCC1)N(C(=O)C(c1ccccc1)c1ccccc1)C2 [Compound I-30]	100	0	
CCCCc1nc2c(n1Cc1ccc(-c3ccccc3-c3nn[nH]n3)cc1)C[C@@H](C(=O)N1CCSCC1)N(C(=O)C(c1ccccc1)c1ccccc1)C2 [Compound I-32]	100	0	
CCCCc1nc2c(n1Cc1ccc(-c3ccccc3-c3nn[nH]n3)cc1)C[C@@H](C(=O)N(CC)CC)N(C(=O)C(c1ccccc1)c1ccccc1)C2 [Compound I-40]	100	0	
CCCCc1nc(Cl)c(CO)n1Cc1ccc(-c2ccccc2-c2nn[nH]n2)cc1 [DuP753, reference compound]	70		0
CCCc1nc2c(n1Cc1ccc(-c3ccccc3-c3nn[nH]n3)c(C)c1)CC(C(=O)O)N(C(=O)C(c1ccccc1)c1ccccc1)C2 (centres unmarked) [Reference compound 26, reference compound]	78	0	
